Test results taken from ChEMBL document CHEMBL1201862, “PubChem BioAssay data set” (2004).
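Compound exposure: 48 hours, 5 concentrations, 96-well plates. Abbreviation: GI50, concentration required for 50% inhibition of growth.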 Activity calls are given as the source filed them. Rule as the data show it: active = GI50 up to about 1.1 µM and inactive = higher.

Tests used:
Experiment in all cases: NCI-60 cell line screen, 48 h
NCI-H460 = test system: NCI-H460
BT-549 = test system: BT-549
CCRF-CEM = test system: CCRF-CEM
NCI-H522 = test system: NCI-H522
Malme-3M = test system: Malme-3M
PC-3 = test system: PC-3
LOX IMVI = test system: LOX IMVI
DU-145 = test system: DU-145
A549 = test system: A549
TK-10 = test system: TK-10
NCI-H23 = test system: NCI-H23
EKVX = test system: EKVX
SNB-75 = test system: SNB-75
MDA-MB-435 = test system: MDA-MB-435
HL-60 = test system: HL-60
HT-29 = test system: HT-29
SK-MEL-28 = test system: SK-MEL-28
HOP-92 = test system: HOP-92
SNB-19 = test system: SNB-19
NCI-H226 = test system: NCI-H226
KM12 = test system: KM12
RXF 393 = test system: RXF 393
COLO 205 = test system: COLO 205
UO-31 = test system: UO-31
SF-268 = test system: SF-268
SK-MEL-5 = test system: SK-MEL-5
Hs-578T = test system: Hs-578T
U-251 = test system: U-251
UACC-257 = test system: UACC-257
SK-MEL-2 = test system: SK-MEL-2
MOLT-4 = test system: MOLT-4
SW-620 = test system: SW-620
HCC 2998 = test system: HCC 2998
OVCAR-8 = test system: OVCAR-8
SR = test system: SR
SK-OV-3 = test system: SK-OV-3
UACC-62 = test system: UACC-62
OVCAR-4 = test system: OVCAR-4
HCT-116 = test system: HCT-116
SF-295 = test system: SF-295
HOP-62 = test system: HOP-62
MDA-N = test system: MDA-N
MDA-MB-231 = test system: MDA-MB-231
ACHN = test system: ACHN
IGROV-1 = test system: IGROV-1
SF-539 = test system: SF-539
SN12C = test system: SN12C
OVCAR-5 = test system: OVCAR-5
A498 = test system: A498
OVCAR-3 = test system: OVCAR-3
HCT-15 = test system: HCT-15
T47D = test system: T47D
MCF7 = test system: MCF7
786-0 = test system: 786-0
K562 = test system: K562
NCI/ADR-RES = test system: NCI/ADR-RES
M14 = test system: M14
RPMI-8226 = test system: RPMI-8226
CAKI-1 = test system: CAKI-1

## CC(C)(C)NC(=O)[C@H]1CC[C@H]2[C@@H]3CC=C4NC(=O)CC[C@]4(C)[C@H]3CC[C@]12C
NCI-H460
  GI50: > 100 µM (inactive)
BT-549
  GI50: > 100 µM (inactive)
CCRF-CEM
  GI50: > 100 µM (inactive)
NCI-H522
  GI50: 36.4 µM (inactive)
Malme-3M
  GI50: > 100 µM (inactive)
PC-3
  GI50: > 100 µM (inactive)
LOX IMVI
  GI50: > 100 µM (inactive)
DU-145
  GI50: > 100 µM (inactive)
A549
  GI50: > 100 µM (inactive)
TK-10
  GI50: 46.8 µM (inactive)
NCI-H23
  GI50: 52 µM (inactive)
EKVX
  GI50: > 100 µM (inactive)
SNB-75
  GI50: 22.6 µM (inactive)
MDA-MB-435
  GI50: > 100 µM (inactive)
HL-60
  GI50: > 100 µM (inactive)
HT-29
  GI50: > 100 µM (inactive)
SK-MEL-28
  GI50: > 100 µM (inactive)
HOP-92
  GI50: 97.9 µM (inactive)
SNB-19
  GI50: > 100 µM (inactive)
NCI-H226
  GI50: > 100 µM (inactive)
KM12
  GI50: > 100 µM (inactive)
RXF 393
  GI50: > 100 µM (inactive)
COLO 205
  GI50: > 100 µM (inactive)
UO-31
  GI50: > 100 µM (inactive)
SF-268
  GI50: 54.6 µM (inactive)
SK-MEL-5
  GI50: > 100 µM (inactive)
Hs-578T
  GI50: 50.9 µM (inactive)
U-251
  GI50: > 100 µM (inactive)
UACC-257
  GI50: 69.3 µM (inactive)
SK-MEL-2
  GI50: > 100 µM (inactive)
MOLT-4
  GI50: > 100 µM (inactive)
SW-620
  GI50: > 100 µM (inactive)
HCC 2998
  GI50: > 100 µM (inactive)
OVCAR-8
  GI50: 70.3 µM (inactive)
SR
  GI50: > 100 µM (inactive)
SK-OV-3
  GI50: > 100 µM (inactive)
UACC-62
  GI50: > 100 µM (inactive)
OVCAR-4
  GI50: 50.1 µM (inactive)
HCT-116
  GI50: > 100 µM (inactive)
SF-295
  GI50: > 100 µM (inactive)
HOP-62
  GI50: > 100 µM (inactive)
MDA-N
  GI50: > 100 µM (inactive)
MDA-MB-231
  GI50: 29.3 µM (inactive)
ACHN
  GI50: > 100 µM (inactive)
IGROV-1
  GI50: > 100 µM (inactive)
SF-539
  GI50: > 100 µM (inactive)
SN12C
  GI50: > 100 µM (inactive)
OVCAR-5
  GI50: > 100 µM (inactive)
A498
  GI50: > 100 µM (inactive)
OVCAR-3
  GI50: > 100 µM (inactive)
HCT-15
  GI50: > 100 µM
T47D
  GI50: > 100 µM (inactive)
MCF7
  GI50: 32.4 µM (inactive)
786-0
  GI50: 90.2 µM (inactive)
K562
  GI50: > 100 µM (inactive)
NCI/ADR-RES
  GI50: 64.9 µM (inactive)
M14
  GI50: > 100 µM (inactive)
RPMI-8226
  GI50: > 100 µM (inactive)

## COc1ccc(CNc2nc3ccccc3nc2C(=O)O)cc1OC
NCI-H460
  GI50: > 100 µM (inactive)
BT-549
  GI50: 30.7 µM (inactive)
CCRF-CEM
  GI50: > 100 µM (inactive)
NCI-H522
  GI50: > 100 µM (inactive)
Malme-3M
  GI50: > 100 µM (inactive)
PC-3
  GI50: > 100 µM (inactive)
LOX IMVI
  GI50: > 100 µM (inactive)
DU-145
  GI50: > 100 µM (inactive)
A549
  GI50: > 100 µM (inactive)
TK-10
  GI50: > 100 µM (inactive)
NCI-H23
  GI50: > 100 µM (inactive)
EKVX
  GI50: > 100 µM (inactive)
SNB-75
  GI50: > 100 µM (inactive)
MDA-MB-435
  GI50: > 100 µM (inactive)
HL-60
  GI50: > 100 µM (inactive)
HT-29
  GI50: > 100 µM (inactive)
SK-MEL-28
  GI50: > 100 µM (inactive)
HOP-92
  GI50: 17.1 µM (inactive)
NCI-H226
  GI50: > 100 µM (inactive)
KM12
  GI50: > 100 µM (inactive)
RXF 393
  GI50: > 100 µM (inactive)
COLO 205
  GI50: > 100 µM (inactive)
UO-31
  GI50: 36.5 µM (inactive)
SF-268
  GI50: > 100 µM (inactive)
SK-MEL-5
  GI50: > 100 µM (inactive)
Hs-578T
  GI50: > 100 µM (inactive)
U-251
  GI50: 97.7 µM (inactive)
UACC-257
  GI50: > 100 µM (inactive)
MOLT-4
  GI50: > 100 µM (inactive)
SW-620
  GI50: > 100 µM (inactive)
HCC 2998
  GI50: > 100 µM (inactive)
OVCAR-8
  GI50: > 100 µM (inactive)
SR
  GI50: > 100 µM (inactive)
SK-OV-3
  GI50: > 100 µM (inactive)
UACC-62
  GI50: > 100 µM (inactive)
OVCAR-4
  GI50: > 100 µM (inactive)
HCT-116
  GI50: > 100 µM (inactive)
SF-295
  GI50: > 100 µM (inactive)
HOP-62
  GI50: > 100 µM (inactive)
MDA-N
  GI50: > 100 µM (inactive)
MDA-MB-231
  GI50: > 100 µM (inactive)
ACHN
  GI50: > 100 µM (inactive)
IGROV-1
  GI50: > 100 µM (inactive)
SF-539
  GI50: > 100 µM (inactive)
SN12C
  GI50: 91.6 µM (inactive)
A498
  GI50: 91.2 µM (inactive)
OVCAR-3
  GI50: > 100 µM (inactive)
HCT-15
  GI50: 83.8 µM
T47D
  GI50: > 100 µM (inactive)
CAKI-1
  GI50: > 100 µM (inactive)
MCF7
  GI50: > 100 µM (inactive)
786-0
  GI50: > 100 µM (inactive)
K562
  GI50: > 100 µM (inactive)
NCI/ADR-RES
  GI50: 26.7 µM (inactive)
RPMI-8226
  GI50: > 100 µM (inactive)

## CC1(C)[C@@H]2C[C@H]1c1cnc(-c3ccccn3)cc1C2[C@@H]1c2cc(-c3ccccn3)ncc2[C@@H]2C[C@H]1C2(C)C (stereo partly specified)
NCI-H460
  GI50: 2.77 µM (inactive)
BT-549
  GI50: > 100 µM (inactive)
CCRF-CEM
  GI50: 47.5 µM (inactive)
NCI-H522
  GI50: 25.3 µM (inactive)
Malme-3M
  GI50: 58.9 µM (inactive)
PC-3
  GI50: 73.6 µM (inactive)
LOX IMVI
  GI50: > 100 µM (inactive)
DU-145
  GI50: > 100 µM (inactive)
A549
  GI50: 30.3 µM (inactive)
TK-10
  GI50: 16.6 µM (inactive)
NCI-H23
  GI50: 41.2 µM (inactive)
EKVX
  GI50: > 100 µM (inactive)
SNB-75
  GI50: 55.8 µM (inactive)
MDA-MB-435
  GI50: 76 µM (inactive)
HL-60
  GI50: 36.4 µM (inactive)
HT-29
  GI50: 45.3 µM (inactive)
SK-MEL-28
  GI50: 88.3 µM (inactive)
HOP-92
  GI50: > 100 µM (inactive)
SNB-19
  GI50: 69.3 µM (inactive)
NCI-H226
  GI50: 28.4 µM (inactive)
KM12
  GI50: 33.3 µM (inactive)
RXF 393
  GI50: > 100 µM (inactive)
COLO 205
  GI50: 49.1 µM (inactive)
UO-31
  GI50: 24.3 µM (inactive)
SF-268
  GI50: 29.3 µM (inactive)
SK-MEL-5
  GI50: 49.7 µM (inactive)
Hs-578T
  GI50: > 100 µM (inactive)
U-251
  GI50: 36.1 µM (inactive)
UACC-257
  GI50: 87.9 µM (inactive)
SK-MEL-2
  GI50: 68.9 µM (inactive)
MOLT-4
  GI50: 44 µM (inactive)
SW-620
  GI50: 84.3 µM (inactive)
HCC 2998
  GI50: 45.7 µM (inactive)
OVCAR-8
  GI50: 46.8 µM (inactive)
SR
  GI50: 62.8 µM (inactive)
SK-OV-3
  GI50: 73.6 µM (inactive)
UACC-62
  GI50: 45 µM (inactive)
OVCAR-4
  GI50: 20.6 µM (inactive)
HCT-116
  GI50: 49 µM (inactive)
SF-295
  GI50: 34.5 µM (inactive)
HOP-62
  GI50: 39.1 µM (inactive)
MDA-N
  GI50: > 100 µM (inactive)
MDA-MB-231
  GI50: > 100 µM (inactive)
ACHN
  GI50: 40.5 µM (inactive)
IGROV-1
  GI50: 25.2 µM (inactive)
SN12C
  GI50: 97.5 µM (inactive)
OVCAR-5
  GI50: > 100 µM (inactive)
A498
  GI50: 39.9 µM (inactive)
OVCAR-3
  GI50: 43.6 µM (inactive)
HCT-15
  GI50: 24.5 µM
T47D
  GI50: 55.1 µM (inactive)
CAKI-1
  GI50: 70.5 µM (inactive)
MCF7
  GI50: 53 µM (inactive)
786-0
  GI50: 86.1 µM (inactive)
K562
  GI50: 22.6 µM (inactive)
NCI/ADR-RES
  GI50: 37.7 µM (inactive)
M14
  GI50: 38 µM (inactive)
RPMI-8226
  GI50: 31.7 µM (inactive)
